We go through five substances from US10660935B2, “Methods for ameliorating memory impairment in a memory disorder caused by neuronal cell death or Abeta aggregation using a peptide” (JAPAN BIO PRODUCTS Co., Ltd., priority 2017, dated 2020).

The subject of assay [1] is Aβ25-35-treated murine cerebral cortical neural cells. The assay is described as follows: Quantitative experiment for dendritic elongation. Type of assay: cell-based, ddY mouse. To be noted: compared with Vehicle. Here is the method:
(§1) Murine cerebral cortical neural cells were prepared by the following method. Fetuses extracted from a 14-day […] ddY mouse (Japan SLC, Shizuoka) were washed with PBS, then decapitated, and added in a medium made for primary culture [12% equine serum (Life Technologies), 2 mM L-glutamic acid, and 0.6% glucose dissolved in Neurobasal media (Life Technologies, Carlsbad, Calif., USA)]. Only cerebral cortex was isolated in the medium under a stereomicroscope (SZ-61, Olympus, Tokyo).
(§2) Cerebral cortex was cut into about 1 mm-sized cubes in a safety cabinet. Centrifugation was performed at 700 rpm for 3 minutes, then the supernatant was removed, and to the precipitate was added 2 mL of 0.05% trypsin-0.53 mM EDTA solution (Life Technologies) to make a suspension. The suspension was incubated at 37° C. for 15 minutes with stirring for every 5 minutes, loaded with 4 mL of the medium, centrifuged at 700 rpm for 3 minutes to remove the supernatant, and to the precipitate was added 2 mL of 600 U/mL DNase I (Wako Pure Chemical Co., Ltd)-0.03% trypsin inhibitor (Life Technologies)-PBS solution to make a suspension.
(§3) The suspension was further incubated at 37° C. for 15 minutes with stirring for every 5 minutes, loaded with 4 mL of the medium, and centrifuged at 700 rpm for 3 minutes. The sediment was loaded with 4 mL of a calcium-magnesium-free Hank's balanced salt solution (HBSS), and centrifuged at 700 rpm for 3 minutes. 4 mL of the medium was added to the sediment.
The sediment loaded with the medium was gently suspended with a Pasteur pipette in which its tip had been heated and smoothed, until the cell clumps were invisible, and then filtrated with a 70 μm nylon cell strainer (Falcon, N.J., USA). Cell culture was performed in an 8-well chamber slide (falcon). Cells were seeded into the one coated the day before [in which Poly-D-Lysine (PDL, Wako Pure Chemical Co., Ltd) diluted with PBS to 0.005 mg/mL was plated and incubated at 37° C.; on the day of culture, it was washed twice with sterilized purified water.] Culture was started at 37° C. and 10% CO2 under saturated vapor.
In quantitative experiment for dendritic elongation, the medium was all changed with a fresh medium containing B-27 supplement (Invitrogen) instead of equine serum 5 hours and 3 days after start of culture. At medium change after 3 days, the pre-aggregated partial sequence fragment of amyloid beta (Aβ25-35) was added up to 10 μM. After another 3 days, each peptide or solvent was added when the medium was all changed into a fresh one, and after another 4 days, immunostaining was performed.
Immunostaining for quantifying dendritic elongation was performed as follows. After the end of the drug treatment term, the medium was removed and the cells were washed with PBS, added with 4% paraformaldehyde (PFA, Wako Pure Chemical Co., Ltd)-PBS solution, left standing at room temperature for an hour, and fixed. Wash with 0.3% triton X-100 (Wako Pure Chemical Co., Ltd)-PBS solution for 5 minutes was performed twice. Then, a primary antibody solution (0.3% triton X-100-PBS solution, 1% normal goat serum [Wako Pure Chemical Co., Ltd], a primary antibody) was added, and reacted at 4° C. overnight.
For the primary antibody, rabbit anti-MAP2 polyclonal antibody (1:2000) (Abcam, Cambridge, UK) was used. The next day, the primary antibody solution was removed; wash was performed twice with 0.3% triton X-100-PBS solution for 5 minutes; and then a secondary antibody solution [0.3% triton X-100-PBS solution, Alexa Fluor 488-labeled goat anti-rabbit IgG antibody (1:200) (Molecular Probes, Eugene, Oreg., USA)] was added, and reacted under shading at room temperature for 2 hours. After the reaction, the secondary antibody solution was removed, and the cells were washed twice with PBS for 5 minutes, stained for nuclei with DAPI staining, and then embedded with Aqua-Poly/Mount (Polysciences, Warrington, USA). […]

Assay [2] has the same test system. The assay is described as follows: Quantitative experiment for presynaptic density. Type of assay: cell-based, ddY mouse. The following applies: 21-day culture. Here is the method:
as §1, §2, §3
The sediment loaded with the medium was gently suspended with a Pasteur pipette in which its tip had been heated and smoothed, until the cell clumps were invisible, and then filtrated with a 70 μm nylon cell strainer (Falcon, N.J., USA). Cell culture was performed in an 8-well chamber slide (falcon). […]
Immunostaining for quantifying presynaptic density was performed as follows. […]

A further assay relates to 5XFAD mice. Kind of assay: Object recognition memory test. The following applies: continuous intraventricular infusion for 28 days keeping 10 nM in cerebrospinal fluid, 24 hours interval between training and testing, P<0.05. The assay is classed as in vivo, mouse. The source says:
Alzheimer's disease model mice: Transgenic mice that are animal models for Alzheimer's disease (5XFAD) were obtained from the Jackson Laboratories (Bar Harbor, Me., USA). 5XFAD mice overexpress human APP695 cDNA having mutations of Swedish (K670N and M671L), Florida (I716V), and London (V717I), and human PS1 cDNA (mutations at M146L and L286V) under transcriptional control of the neuron-specific murine Thy-1 promoter (Oakley, H. et al., J Neurosci, 26, 10129-10140, 2006). Those were maintained by crossing B6/SJL F1 breeders with hemizygous transgenic mice. […]
GPPGPAG (SEQ ID NO: 1) was dissolved in an artificial cerebrospinal fluid, and an osmotic minipump model 1004 (ALZET Osmotic Pumps, Cupertino, USA) containing the solution inserted and fixed into the right lateral ventricle of each 5XFAD mouse to inject the solution into the lateral ventricle continuously for 28 days. […] Specifically, from a peptide flow of 0.11 μL/h from the pump and a production of cerebrospinal fluid of 18 μL/h in the mouse, the concentration of the peptide solution was calculated such that the peptide concentration in the murine cerebrospinal fluid would be kept at 10 nM (which was an effective concentration in the cell experiments), and the solution prepared thereby was loaded into the pump. […]

The mark [3] stands for this setting: posttreatment with 1 nM peptide for 4 days after 10 μM Aβ25-35 for 3 days.
Setting [4] is: posttreatment with 10 nM peptide for 4 days after 10 μM Aβ25-35 for 3 days.

For GPPGPPG (P2), the “density of dendrites (length of MAP2-positive dendrites per neural cell)” value in assay [1] (setting [3]) and in assay [1] (setting [4]) was “neither treatment with 1 nM nor 10 nM was any effect observed” each time.
In the case of “GPPGPA: comparison peptide of amino acid sequence GPPGPA (SEQ ID NO: 4) (P4)”, the “density of dendrites (length of MAP2-positive dendrites per neural cell)” value in assay [1] (setting [3]) and in assay [1] (setting [4]) was “neither treatment with 1 nM nor 10 nM was any effect observed” each time.
For “PPGPAG: comparison peptide of amino acid sequence PPGPAG (SEQ ID NO: 5) (P5)”, the “density of dendrites (length of MAP2-positive dendrites per neural cell)” value in assay [1] (setting [3]) and in assay [1] (setting [4]) was “neither treatment with 1 nM nor 10 nM was any effect observed” each time.
Consider GPPGPAG (P1), for which the “presynaptic density on dendrites (synaptophysin-positive area per dendrite length)” value in assay [2] (posttreatment with 1 nM, 10 nM and 100 nM, 10 μM Aβ25-35 for 3 days, peptide for 4 days) is “concentration-dependent increase in presynaptic density”; in assay [2] (posttreatment with 10 nM, 10 μM Aβ25-35, compared with Vehicle), “significant increase”; in assay [2] (posttreatment with 100 nM, 10 μM Aβ25-35, compared with Vehicle) it was “significant increase”. Moreover, in the assay with 5XFAD mice, the “exploratory preferential index at the testing stage relative to the training stage” value is recorded as “significantly increased”. Besides, in assay [1] (setting [4]), the “density of dendrites (length of MAP2-positive dendrites per neural cell)” value is recorded as “significant increase in density of dendrites”.
On to “GPPGPP: comparison peptide of amino acid sequence GPPGPP (SEQ ID NO: 3) (P3)”, for which the “density of dendrites (length of MAP2-positive dendrites per neural cell)” value in assay [1] (setting [3]) and in assay [1] (setting [4]) was “neither treatment with 1 nM nor 10 nM was any effect observed” in each case.
